Here are results for 16 molecules from patent publication US20250223268A1, “4-Methylsulfonylbenzamide Compound, Preparation Method, Herbicidal Composition And Use” (Jiangsu Flag Chemical Industry Co., Ltd., priority 2022, published 2025).

Assay in all cases: Greenhouse herbicidal activity assay, post-emergence
What all share (assay type): in vivo

One assay concerns Cyperus iria. The conditions noted are these: Post-emergence test, rate 150 g a.i./hm^2, grade by fresh weight inhibition rate; for pest or weed control at 150 g/ha: Cyperus iria, read-out: Control efficacy grade, Cyperus iria. The procedure, abridged: (§1)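 Scores reflect fresh weight inhibition assessed 14-21 days after treatment, with grade A meaning ≥80% to 100% and grade E meaning <20%. Plants, raised in nutrient-soil pots inside a growth chamber, were sprayed on the foliage at the 3-6 leaf stage.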

The subject of the next assay is Digitaria sanguinalis. The conditions noted are these: Post-emergence test, rate 150 g a.i./hm^2, grade by fresh weight inhibition rate; for pest or weed control at 150 g/ha: Digitaria sanguinalis, read-out: Control efficacy grade, Digitaria sanguinalis. The procedure, abridged:
as §1

The test system of a further assay is Echinochloa crusgalli. The conditions noted are these: Post-emergence test, rate 150 g a.i./hm^2, grade by fresh weight inhibition rate; for pest or weed control at 150 g/ha: Echinochloa crus-galli, read-out: Control efficacy grade, Echinochloa crusgalli. An outline of the steps:
as §1

The test system of a further assay is Leptochloa chinensis. The conditions noted are these: Post-emergence test, rate 150 g a.i./hm^2, grade by fresh weight inhibition rate; for pest or weed control at 150 g/ha: Dinebra chinensis, read-out: Control efficacy grade, Leptochloa chinensis. An outline of the steps:
as §1

In the next assay the test system is Eclipta prostrata. The conditions noted are these: Post-emergence test, rate 150 g a.i./hm^2, grade by fresh weight inhibition rate; for pest or weed control at 150 g/ha: Eclipta prostrata, read-out: Control efficacy grade, Eclipta prostrata. An outline of the steps: as §1

Take `CCC[S+]([O-])c1c(S(C)(=O)=O)ccc(C(=O)Nc2nnc(CC)o2)c1Cl` (racemic) [Compound 3-384]: in the assay on Cyperus iria, the “Control efficacy grade, Cyperus iria” value was “A (Fresh weight inhibition rate≥80% to 100%)”. The “Control efficacy grade, Digitaria sanguinalis” value in the assay on Digitaria sanguinalis is reported as “A (Fresh weight inhibition rate≥80% to 100%)”. In the assay with Echinochloa crusgalli, the “Control efficacy grade, Echinochloa crusgalli” value is reported as “A (Fresh weight inhibition rate≥80% to 100%)”. The “Control efficacy grade, Leptochloa chinensis” value in the assay with Leptochloa chinensis was “A (Fresh weight inhibition rate≥80% to 100%)”. Moreover, the “Control efficacy grade, Eclipta prostrata” value in the assay on Eclipta prostrata is “A (Fresh weight inhibition rate≥80% to 100%)”.

As to `CC(C)[S+]([O-])c1c(S(C)(=O)=O)ccc(C(=O)Nc2nnc(C3CC3)o2)c1Cl` (racemic) [Compound 3-621, 2-chloro-N-(5-cyclopropyl-1,3,4-oxadiazol-2-yl)-3-(isopropylsulfinyl)-4-(methylsulfonyl)benzamide], the pest or weed control at 150 g/ha in the assay with Cyperus iria, in the assay with Digitaria sanguinalis, in the assay on Echinochloa crusgalli, with Leptochloa chinensis and in the assay with Eclipta prostrata was 80 to 100% in each case.

With `CCc1nnc(NC(=O)c2ccc(S(C)(=O)=O)c([S+]([O-])C(C)CC)c2Cl)o1` (mixture of isomers) [Compound 3-401], the “Control efficacy grade, Cyperus iria” value in the assay on Cyperus iria was “A (Fresh weight inhibition rate≥80% to 100%)”. For the same molecule, the “Control efficacy grade, Digitaria sanguinalis” value in the assay with Digitaria sanguinalis was “A (Fresh weight inhibition rate≥80% to 100%)”. Further, the “Control efficacy grade, Echinochloa crusgalli” value in the assay with Echinochloa crusgalli is “A (Fresh weight inhibition rate≥80% to 100%)”. Moreover, the “Control efficacy grade, Leptochloa chinensis” value in the assay on Leptochloa chinensis is recorded as “A (Fresh weight inhibition rate≥80% to 100%)”. Also, the “Control efficacy grade, Eclipta prostrata” value in the assay on Eclipta prostrata is recorded as “A (Fresh weight inhibition rate≥80% to 100%)”.

For `CS(=O)(=O)c1ccc(C(=O)Nc2nnco2)c(Cl)c1[S+]([O-])C1CCCCC1` (racemic) [Compound 3-319], in the assay with Cyperus iria, the “Control efficacy grade, Cyperus iria” value was “A (Fresh weight inhibition rate≥80% to 100%)”. The “Control efficacy grade, Digitaria sanguinalis” value in the assay with Digitaria sanguinalis was “A (Fresh weight inhibition rate≥80% to 100%)”. Also, the “Control efficacy grade, Echinochloa crusgalli” value with Echinochloa crusgalli was “A (Fresh weight inhibition rate≥80% to 100%)”. Further, the “Control efficacy grade, Leptochloa chinensis” value in the assay on Leptochloa chinensis is “A (Fresh weight inhibition rate≥80% to 100%)”. For the same molecule, the “Control efficacy grade, Eclipta prostrata” value with Eclipta prostrata is recorded as “A (Fresh weight inhibition rate≥80% to 100%)”.

On to `Cn1nnnc1NC(=O)c1ccc(S(C)(=O)=O)c(SCC2CC2)c1Cl` [Compound 1-27], for which the “Control efficacy grade, Cyperus iria” value in the assay on Cyperus iria is “A (Fresh weight inhibition rate≥80% to 100%)”. Moreover, in the assay with Digitaria sanguinalis, the “Control efficacy grade, Digitaria sanguinalis” value was “A (Fresh weight inhibition rate≥80% to 100%)”. Also, the “Control efficacy grade, Echinochloa crusgalli” value in the assay on Echinochloa crusgalli was “A (Fresh weight inhibition rate≥80% to 100%)”. The “Control efficacy grade, Leptochloa chinensis” value in the assay on Leptochloa chinensis was “A (Fresh weight inhibition rate≥80% to 100%)”. Moreover, the “Control efficacy grade, Eclipta prostrata” value in the assay with Eclipta prostrata was “A (Fresh weight inhibition rate≥80% to 100%)”.

For the molecule `CS(=O)(=O)c1ccc(C(=O)Nc2nnco2)c(Cl)c1[S+]([O-])CC1CC1` (racemic) [Compound 3-299], the “Control efficacy grade, Cyperus iria” value with Cyperus iria is reported as “A (Fresh weight inhibition rate≥80% to 100%)”. The “Control efficacy grade, Digitaria sanguinalis” value in the assay on Digitaria sanguinalis is listed as “A (Fresh weight inhibition rate≥80% to 100%)”. The “Control efficacy grade, Echinochloa crusgalli” value in the assay on Echinochloa crusgalli is listed as “A (Fresh weight inhibition rate≥80% to 100%)”. Moreover, in the assay on Leptochloa chinensis, the “Control efficacy grade, Leptochloa chinensis” value is “A (Fresh weight inhibition rate≥80% to 100%)”. Further, in the assay with Eclipta prostrata, the “Control efficacy grade, Eclipta prostrata” value is on record as “A (Fresh weight inhibition rate≥80% to 100%)”.

In the case of `Cc1nnc(NC(=O)c2ccc(S(C)(=O)=O)c([S+]([O-])C3CCCC3)c2Cl)o1` (racemic) [Compound 3-88], in the assay on Cyperus iria, the “Control efficacy grade, Cyperus iria” value is “A (Fresh weight inhibition rate≥80% to 100%)”. Also, the “Control efficacy grade, Digitaria sanguinalis” value in the assay with Digitaria sanguinalis is “A (Fresh weight inhibition rate≥80% to 100%)”. In addition, the “Control efficacy grade, Echinochloa crusgalli” value in the assay on Echinochloa crusgalli was “A (Fresh weight inhibition rate≥80% to 100%)”. For the same molecule, in the assay on Leptochloa chinensis, the “Control efficacy grade, Leptochloa chinensis” value was “A (Fresh weight inhibition rate≥80% to 100%)”. For the same molecule, in the assay with Eclipta prostrata, the “Control efficacy grade, Eclipta prostrata” value was “A (Fresh weight inhibition rate≥80% to 100%)”.

As for `Cn1ncnc1NC(=O)c1ccc(S(C)(=O)=O)c(SCC2CC2)c1Cl` [Compound 2-27], the “Control efficacy grade, Cyperus iria” value in the assay on Cyperus iria was “A (Fresh weight inhibition rate≥80% to 100%)”. Further, the “Control efficacy grade, Digitaria sanguinalis” value with Digitaria sanguinalis is recorded as “A (Fresh weight inhibition rate≥80% to 100%)”. In addition, in the assay with Echinochloa crusgalli, the “Control efficacy grade, Echinochloa crusgalli” value is “A (Fresh weight inhibition rate≥80% to 100%)”. In addition, the “Control efficacy grade, Leptochloa chinensis” value in the assay with Leptochloa chinensis is reported as “A (Fresh weight inhibition rate≥80% to 100%)”. Moreover, in the assay on Eclipta prostrata, the “Control efficacy grade, Eclipta prostrata” value is recorded as “A (Fresh weight inhibition rate≥80% to 100%)”.

With `CCC[S+]([O-])c1c(S(C)(=O)=O)ccc(C(=O)Nc2nnnn2C)c1Cl` (single isomer, unassigned) [Compound 1-4], the “Control efficacy grade, Cyperus iria” value in the assay with Cyperus iria is “A (Fresh weight inhibition rate≥80% to 100%)”. In addition, the “Control efficacy grade, Digitaria sanguinalis” value in the assay on Digitaria sanguinalis is given as “A (Fresh weight inhibition rate≥80% to 100%)”. In addition, the “Control efficacy grade, Echinochloa crusgalli” value with Echinochloa crusgalli is “A (Fresh weight inhibition rate≥80% to 100%)”. Further, the “Control efficacy grade, Leptochloa chinensis” value in the assay with Leptochloa chinensis is reported as “A (Fresh weight inhibition rate≥80% to 100%)”. Also, the “Control efficacy grade, Eclipta prostrata” value in the assay with Eclipta prostrata was “A (Fresh weight inhibition rate≥80% to 100%)”.

Take `C=CC[S+]([O-])c1c(S(C)(=O)=O)ccc(C(=O)Nc2nnc(C3CC3)o2)c1Cl` (racemic) [Compound 3-687]: the “Control efficacy grade, Cyperus iria” value in the assay on Cyperus iria was “A (Fresh weight inhibition rate≥80% to 100%)”. Besides, the “Control efficacy grade, Digitaria sanguinalis” value in the assay with Digitaria sanguinalis is “A (Fresh weight inhibition rate≥80% to 100%)”. Moreover, the “Control efficacy grade, Echinochloa crusgalli” value in the assay with Echinochloa crusgalli is “B (Fresh weight inhibition rate≥260% to <80%)”. Besides, the “Control efficacy grade, Leptochloa chinensis” value with Leptochloa chinensis is recorded as “A (Fresh weight inhibition rate≥80% to 100%)”. Besides, the “Control efficacy grade, Eclipta prostrata” value in the assay with Eclipta prostrata is “A (Fresh weight inhibition rate≥80% to 100%)”.

Consider `Cc1nnc(NC(=O)c2ccc(S(C)(=O)=O)c(SC(C)C)c2Cl)o1` [Compound 3-6, 2-chloro-3-(isopropylthio)-N-(5-methyl-1,3,4-oxadiazol-2-yl)-4-(methylsulfonyl)benzamide], for which the pest or weed control at 150 g/ha in the assay with Cyperus iria, in the assay with Digitaria sanguinalis, with Echinochloa crusgalli, in the assay on Leptochloa chinensis and with Eclipta prostrata was 80 to 100% in each case.

With `Cc1nonc1NC(=O)c1ccc(S(C)(=O)=O)c([S+]([O-])CC2CC2)c1Cl` (centres unmarked) [Compound 4-33, 2-chloro-3-((cyclopropylmethyl)sulfinyl)-N-(4-methyl-1,2,5-oxadiazol-3-yl)-4-(methylsulfonyl)benzamide], the pest or weed control at 150 g/ha in the assay with Cyperus iria, in the assay on Digitaria sanguinalis, with Echinochloa crusgalli, with Leptochloa chinensis and in the assay on Eclipta prostrata was 80 to 100% throughout.

For `CC(C)[S+]([O-])c1c(S(C)(=O)=O)ccc(C(=O)Nc2nnnn2C)c1Cl` (single isomer, unassigned) [Compound 1-8], the “Control efficacy grade, Cyperus iria” value in the assay on Cyperus iria is reported as “A (Fresh weight inhibition rate≥80% to 100%)”. Further, in the assay on Digitaria sanguinalis, the “Control efficacy grade, Digitaria sanguinalis” value is recorded as “A (Fresh weight inhibition rate≥80% to 100%)”. The “Control efficacy grade, Echinochloa crusgalli” value with Echinochloa crusgalli is reported as “A (Fresh weight inhibition rate≥80% to 100%)”. Further, the “Control efficacy grade, Leptochloa chinensis” value with Leptochloa chinensis was “A (Fresh weight inhibition rate≥80% to 100%)”. Further, the “Control efficacy grade, Eclipta prostrata” value in the assay on Eclipta prostrata is recorded as “A (Fresh weight inhibition rate≥80% to 100%)”.

On to `CCCSc1c(S(C)(=O)=O)ccc(C(=O)Nc2ncnn2C)c1Cl` [Compound 2-1], for which the “Control efficacy grade, Cyperus iria” value in the assay on Cyperus iria is listed as “A (Fresh weight inhibition rate≥80% to 100%)”. Moreover, the “Control efficacy grade, Digitaria sanguinalis” value with Digitaria sanguinalis is “A (Fresh weight inhibition rate≥80% to 100%)”. Moreover, the “Control efficacy grade, Echinochloa crusgalli” value in the assay with Echinochloa crusgalli is “A (Fresh weight inhibition rate≥80% to 100%)”. Also, the “Control efficacy grade, Leptochloa chinensis” value in the assay on Leptochloa chinensis is listed as “A (Fresh weight inhibition rate≥80% to 100%)”. Also, the “Control efficacy grade, Eclipta prostrata” value in the assay with Eclipta prostrata was “A (Fresh weight inhibition rate≥80% to 100%)”.

For the molecule `Cc1nnc(NC(=O)c2ccc(S(C)(=O)=O)c([S+]([O-])C3CC3)c2Cl)o1` (racemic) [Compound 3-78], the “Control efficacy grade, Cyperus iria” value with Cyperus iria was “A (Fresh weight inhibition rate≥80% to 100%)”. Besides, the “Control efficacy grade, Digitaria sanguinalis” value in the assay with Digitaria sanguinalis is given as “A (Fresh weight inhibition rate≥80% to 100%)”. Besides, the “Control efficacy grade, Echinochloa crusgalli” value in the assay on Echinochloa crusgalli is on record as “A (Fresh weight inhibition rate≥80% to 100%)”. In addition, the “Control efficacy grade, Leptochloa chinensis” value in the assay on Leptochloa chinensis was “A (Fresh weight inhibition rate≥80% to 100%)”. For the same molecule, in the assay with Eclipta prostrata, the “Control efficacy grade, Eclipta prostrata” value is on record as “A (Fresh weight inhibition rate≥80% to 100%)”.

As for `Cc1nnc(NC(=O)c2ccc(S(C)(=O)=O)c(SCC(F)F)c2Cl)o1` [Compound 3-102], the “Control efficacy grade, Cyperus iria” value with Cyperus iria is listed as “A (Fresh weight inhibition rate≥80% to 100%)”. The “Control efficacy grade, Digitaria sanguinalis” value in the assay with Digitaria sanguinalis is given as “A (Fresh weight inhibition rate≥80% to 100%)”. In the assay with Echinochloa crusgalli, the “Control efficacy grade, Echinochloa crusgalli” value was “A (Fresh weight inhibition rate≥80% to 100%)”. Moreover, the “Control efficacy grade, Leptochloa chinensis” value in the assay with Leptochloa chinensis is “A (Fresh weight inhibition rate≥80% to 100%)”. Besides, the “Control efficacy grade, Eclipta prostrata” value in the assay with Eclipta prostrata was “A (Fresh weight inhibition rate≥80% to 100%)”.
